Results taken from patent US8901035B2, “Herbicidal compositions comprising 4-amino-3-chloro-5-fluoro-6-(4-chloro-2-fluoro-3-methoxyphenyl) pyridine-2-carboxylic acid or a derivative thereof and cellulose biosynthesis inhibitor herbicides” (Dow AgroSciences LLC, priority 2012, dated 2014).

Legend:
Assay type in all cases: in vivo
[1] = system: Brachiaria platyphylla (Griseb.) Nash or Urochloa platyphylla (Nash) R.D. Webster (BRAPP); assay: Postemergence foliar-applied herbicidal mixtures, weed control in direct seeded rice (greenhouse)
Description: (§1) Seeds or nutlets of the desired test plant species were planted in a soil matrix prepared by mixing a loam or sandy loam soil (e.g., 28.6 percent silt, 18.8 percent clay, and 52.6 percent sand, with a pH of about 5.8 and an organic matter content of about 1.8 percent) and calcareous grit in an 80 to 20 ratio. The soil matrix was contained in plastic pots with a volume of 1 quart and a surface area of 83.6 square centimeters (cm^2). When required to ensure good germination and healthy plants, a fungicide treatment and/or other chemical or physical treatment was applied. The plants were grown for 8-22 days in a greenhouse with an approximate 14 h photoperiod which was maintained at about 29° C. during the day and 26° C. during the night. Nutrients (Peters Excel® 15-5-15 5-Ca 2-Mg and iron chelate) were applied in the irrigation solution as needed and water was added on a regular basis. Supplemental lighting was provided with overhead metal halide 1000-Watt lamps as necessary. The plants were employed for testing when they reached the first through fourth true leaf stage.
(§2) Treatments consisted of the acid or esters of 4-amino-3-chloro-5-fluoro-6-(4-chloro-2-fluoro-3-methoxy-phenyl) pyridine-2-carboxylic acid (Compound A), each formulated as an SC (suspension concentrate), and various herbicidal components alone and in combination. Forms of compound A were applied on an acid equivalent basis.
(§3) Other herbicidal components were applied on an active ingredient basis and included cellulose biosynthesis-inhibiting (CBI) herbicides isoxaben formulated as Gallery® 75DF and indaziflam formulated as Specticle® 20WSP.
(§4) Treatment requirements were calculated based upon the rates being tested, the concentration of active ingredient or acid equivalent in the formulation, and a 12 mL application volume at a rate of 187 L/ha.
(§5) For treatments comprised of formulated compounds, measured amounts of compounds were placed individually in 25 mL glass vials and diluted in a volume of 1.25% (v/v) Agri-Dex® crop oil concentrated to obtain 12× stock solutions. […] Application solutions were prepared by adding an appropriate amount of each stock solution (e.g., 1 mL) and diluted to the appropriate final concentrations with the addition of 10 mL of an aqueous mixture of 1.25% (v/v) crop oil concentrate so that the final spray solutions contained 1.25+/−0.05% (v/v) crop oil concentrate.
(§6) All stock solutions and applications solutions were visually inspected for compound compatibility prior to application. Spray solutions were applied to the plant material with an overhead Mandel track sprayer equipped with a 8002E nozzles calibrated to deliver 187 L/ha over an application area of 0.503 m^2 at a spray height of 18 to 20 inches (46 to 50 cm) above average plant canopy height. Control plants were sprayed in the same manner with the solvent blank.
(§7) The treated plants and control plants were placed in a greenhouse as described above and watered by sub-irrigation to prevent wash-off of the test compounds. After approximately 3 weeks, the condition of the test plants as compared with that of the untreated plants was determined visually and scored on a scale of 0 to 100 percent where 0 corresponds to no injury or growth inhibition and 100 corresponds to complete kill.
(§8) Colby's equation was used to determine the herbicidal effects expected from the mixtures (Colby, S. R. 1967. Calculation of the synergistic and antagonistic response of herbicide combinations. Weeds 15:20-22).
(§9) The following equation was used to calculate the expected activity of mixtures containing two active ingredients, A and B: Expected=A+B−(A×B/100)
(§10) A=observed efficacy of active ingredient A at the same concentration as used in the mixture.
(§11) B=observed efficacy of active ingredient B at the same concentration as used in the mixture.

[2] = system: Leptochloa chinensis (L.) Nees (LEFCH); assay: as above
Description: as §1, §2, §3, §4, §5, §6, §7, §8, §9, §10, §11

[3] = system: Digitaria sanguinalis (L.) Scop. (DIGSA); assay: as above
Description: as §1, §2, §3, §4, §5, §6, §7, §8, §9, §10, §11

[4] = system: Xanthium strumarium L. (XANST); assay: Pre-emergence soil-applied herbicidal mixtures for weed control (greenhouse)
Description: (§12) Seeds or nutlets of the desired test plant species were planted in a soil matrix prepared by mixing a loam soil (e.g., 32 percent silt, 23 percent clay, and 45 percent sand, with a pH of about 6.5 and an organic matter content of about 1.9 percent) and calcareous grit in an 80 to 20 ratio. The soil matrix was contained in plastic pots with a volume of 1 quart and a surface area of 83.6 square centimeters (cm^2).
(§13) Treatments consisted of the benzyl ester of 4-amino-3-chloro-5-fluoro-6-(4-chloro-2-fluoro-3-methoxy-phenyl)pyridine-2-carboxylic acid (compound A) formulated as an SC (suspension concentrate) and various herbicidal components alone and in combination. Forms of compound A were applied on an acid equivalent basis.
(§14) Other herbicidal components were applied on an acid equivalent or active ingredient basis and included the cellulose biosynthesis inhibiting herbicides, isoxaben formulated as Gallery® 75DF and indaziflam formulated as Specticle® 20WSP.
as §4
as §5, with “oil concentrate (COC)” for “oil concentrated”, “(v/v) COC” for “(v/v) crop oil concentrate”, “contained 1.25%” for “contained 1.25+/−0.05%”, “(v/v) COC.” for “(v/v) crop oil concentrate.”
as §6, with “soil” for “plant material”, “18” for “18 to 20”, “(46” for “(46 to 50”, “pot” for “plant canopy”, “pots” for “plants”
(§15) The treated and control pots were placed in a greenhouse and top watered as needed. When required to ensure good germination and healthy plants, a fungicide treatment and/or other chemical or physical treatment was applied. The pots were maintained in a greenhouse with an approximate 14 hr. photoperiod which was maintained at about 29° C. during the day and 26° C. during the night. Nutrients (Peters® Excel 15-5-15 5-Ca 2-Mg) were applied in the irrigation solution as needed and water was added on a regular basis. Supplemental lighting was provided with overhead metal halide 1000-Watt lamps as necessary. After approximately 4 weeks, the condition of the test plants as compared with that of the untreated plants was determined visually and scored on a scale of 0 to 100 percent where 0 corresponds to no injury or growth inhibition and 100 corresponds to complete kill.
as §8, §9, §10, §11

[5] = system: Ipomoea hederacea (L.) Jacq. (IPOHE); assay: as above
Description: as §12, §13, §14, §4
as §5, with “oil concentrate (COC)” for “oil concentrated”, “(v/v) COC” for “(v/v) crop oil concentrate”, “contained 1.25%” for “contained 1.25+/−0.05%”, “(v/v) COC.” for “(v/v) crop oil concentrate.”
as §6, with “soil” for “plant material”, “18” for “18 to 20”, “(46” for “(46 to 50”, “pot” for “plant canopy”, “pots” for “plants”
as §15, §8, §9, §10, §11

[6] = system: Setaria faberi Herrm. (SETFA); assay: as above; details: Indaziflam 95 g ai/ha alone
Description: as §12, §13, §14, §4
as §5, with “oil concentrate (COC)” for “oil concentrated”, “(v/v) COC” for “(v/v) crop oil concentrate”, “contained 1.25%” for “contained 1.25+/−0.05%”, “(v/v) COC.” for “(v/v) crop oil concentrate.”
as §6, with “soil” for “plant material”, “18” for “18 to 20”, “(46” for “(46 to 50”, “pot” for “plant canopy”, “pots” for “plants”
as §15, §8, §9, §10, §11

[7] = Compound A Acid 4.38 g ae/ha alone
[8] = Compound A Acid 5.3 g ae/ha alone
[9] = Compound A Acid 8.75 g ae/ha alone
[10] = Compound A Acid 10.6 g ae/ha alone

Q: For `COc1c(Cl)ccc(-c2nc(C(=O)O)c(Cl)c(N)c2F)c1F` [Compound A Acid, 4-amino-3-chloro-6-(4-chloro-2-fluoro-3-methoxyphenyl)-5-fluoropyridine-2-carboxylic acid], which “Visual Weed Control (%) - 20 DAA Obs” value [1, 7] is on record?
A: 75%

Q: And the “Visual Weed Control (%) - 21 DAA Obs” value [1, 8]?
A: 60%

Q: And the “Visual Weed Control (%) - 20 DAA Obs” value [1, 9]?
A: 80%

Q: And the “Visual Weed Control (%) - 21 DAA Obs” value [1, 10]?
A: 85%

Q: And the “Visual Weed Control (%) - 20 DAA Obs” value [2, 7]?
A: 15%

Q: What about the “Visual Weed Control (%) - 21 DAA Obs” value [3, 8] of the same compound?
A: 20%

Q: And the “Visual Weed Control (%) - 20 DAA Obs” value [3, 9]?
A: 45%

Q: What about the “Visual Weed Control (%) - 21 DAA Obs” value [3, 10] of the same compound?
A: 30%

Q: And the “Visual Weed Control (%) - 20 DAA Obs” value ([3]; Compound A Acid 17.5 g ae/ha alone)?
A: 50%

Q: And the “Visual Weed Control (%) - 21 DAA Obs” value ([3]; Compound A Acid 21.2 g ae/ha alone)?
A: 35%

Q: With `Cc1ccc2c(c1)[C@H](Nc1nc(N)nc(C(C)F)n1)[C@@H](C)C2` (stereo partly drawn) [Indaziflam, N-[(1R,2S)-2,3-dihydro-2,6-dimethyl-1H-inden-1-yl]-6-(1-fluoroethyl)-1,3,5-triazine-2,4-diamine, reference compound] as the compound, how does the “Visual Weed Control (%) - 21 DAA Obs” value ([1]; Indaziflam 21 g ai/ha alone) read?
A: 0%

Q: What about the “Visual Weed Control (%) - 21 DAA Obs” value ([1]; Indaziflam 42 g ai/ha alone) of the same compound?
A: 15%

Q: What about the “Visual Weed Control (%) - 21 DAA Obs” value ([2]; Indaziflam 42 g ai/ha alone) of the same compound?
A: 70%

Q: And the “Visual Weed Control (%) - 21 DAA Obs” value ([3]; Indaziflam 21 g ai/ha alone)?
A: 50%

Q: And the “Visual Weed Control (%) - 21 DAA Obs” value ([3]; Indaziflam 42 g ai/ha alone)?
A: 45%

Q: And the “Visual Weed Control (%) - 28 DAA XANST Obs” value ([4]; Indaziflam 17.5 g ai/ha alone)?
A: 25%

Q: What about the “Visual Weed Control (%) - 28 DAA XANST Obs” value ([4]; Indaziflam 70 g ai/ha alone) of the same compound?
A: 45%

Q: And the “Visual Weed Control (%) - 28 DAA IPOHE Obs” value ([5]; Indaziflam 17.5 g ai/ha alone)?
A: 40%

Q: And the “Visual Weed Control (%) - 28 DAA IPOHE Obs” value ([5]; Indaziflam 70 g ai/ha alone)?
A: 40%

Q: And the “Visual Weed Control (%) - 27 DAA SETFA Obs” value [6]?
A: 70%
